Assay results as given in patent US8906928B2, “Substituted pyrazolo-pyrrolo-pyridine-dione compounds” (ArQule, Inc., priority 2009, dated 2014).

Legend:
PC-3 = assay: MTS assay (cell growth inhibition), PC-3; type: cell-based; conditions: PC-3 cells, 72 hours incubation with test compound; concentration not given
Method in brief: (§1)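 First, seed 3000 cells per well in low-serum (1% FBS) DMEM and culture 18 h. Next, add compounds prepared at 300× in DMSO and diluted 1:40 in DMEM; incubate 72 h. Finally, add MTS/PMS for 4 h and measure absorbance at 492 nm.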

DLD-1 = assay: MTS assay (cell growth inhibition), DLD-1; type: cell-based; conditions: DLD-1 cells, 72 hours incubation with test compound; concentration not given
Method in brief: as §1

PACA-2 = assay: MTS assay (cell growth inhibition), PACA-2; type: cell-based; conditions: PACA-2 cells, 72 hours incubation with test compound; concentration not given
Method in brief: as §1

NCI-H1299 = assay: MTS assay (cell growth inhibition), NCI-H1299; type: cell-based; conditions: NCI-H1299 cells, 72 hours incubation with test compound; concentration not given
Method in brief: as §1

MDA-MB = assay: MTS assay (cell growth inhibition), MDA-MB; type: cell-based; conditions: MDA-MB cells, 72 hours incubation with test compound; concentration not given
Method in brief: as §1

Kato III = assay: MTS assay (cell growth inhibition), Kato III; type: cell-based; conditions: Kato III cells, 72 hours incubation with test compound; concentration not given
Method in brief: as §1

melting point	SMILES	MTS CELL KILL DATA (% INHIBITION) PC-3 (PC-3)	MTS CELL KILL DATA (% INHIBITION) DLD-1 (DLD-1)	MTS CELL KILL DATA (% INHIBITION) PACA-2 (PACA-2)	MTS CELL KILL DATA (% INHIBITION) NCI-H1299 (NCI-H1299)	MTS CELL KILL DATA (% INHIBITION) MDA-MB (MDA-MB)	MTS CELL KILL DATA (% INHIBITION) Kato III (Kato III)
237 to 239 °C	O=C1c2cnc3[nH]ncc3c2C(=O)N1CCc1ccccc1 [Example 2, 7-(2-phenylethyl)pyrazolo[3,4-b]pyrrolo[3,4-d]pyridine-6,8(3H,7H)-dione]	A (A = 80-100% INHIBITION)	A (A = 80-100% INHIBITION)	A (A = 80-100% INHIBITION)	A (A = 80-100% INHIBITION)	A (A = 80-100% INHIBITION)	A (A = 80-100% INHIBITION)
> 300 °C	O=C1c2cnc3[nH]ncc3c2C(=O)N1CC1CCNCC1 [Example 57, 7-(piperidin-4-ylmethyl)pyrazolo[3,4-b]pyrrolo[3,4-d]pyridine-6,8(3H,7H)-dione]	–	–	–	–	–	–
> 300 °C	O=C1c2cnc3[nH]ncc3c2C(=O)N1CCC1CCNCC1 [Example 70, 7-(2-piperidin-4-ylethyl)pyrazolo[3,4-b]pyrrolo[3,4-d]pyridine-6,8(3H,7H)-dione]	–	–	–	–	–	–
285 to 287 °C	N#Cc1ccccc1CN1C(=O)c2cnc3[nH]ncc3c2C1=O [Example 108, 2-[(6,8-dioxo-6,8-dihydropyrazolo[3,4-b]pyrrolo[3,4-d]pyridin-7(3H)-yl)methyl]benzonitrile]	–	–	–	–	–	–
134 to 137 °C	CC(C)(C)OC(=O)N1CCC(CN2C(=O)c3cnc4[nH]ncc4c3C2=O)CC1 [Example 140, tert-butyl 4-[(6,8-dioxo-6,8-dihydropyrazolo[3,4-b]pyrrolo[3,4-d]pyridin-7(3H)-yl)methyl]piperidine-1-carboxylate]	A (A = 80-100% INHIBITION)	C (C = <50% INHIBITION)	A (A = 80-100% INHIBITION)	C (C = <50% INHIBITION)	A (A = 80-100% INHIBITION)	C (C = <50% INHIBITION)
93 to 100 °C	O=C1c2cnc3[nH]ncc3c2C(=O)N1Cc1ccccc1-c1cccc(F)c1F [Example 141, 7-[(2′,3′-difluorobiphenyl-2-yl)methyl]pyrazolo[3,4-b]pyrrolo[3,4-d]pyridine-6,8(3H,7H)-dione]	–	–	–	–	–	–
283 to 285 °C	N#Cc1cccc(CN2C(=O)c3cnc4[nH]nc(Br)c4c3C2=O)c1 [Example 142, 3-[(1-bromo-6,8-dioxo-6,8-dihydropyrazolo[3,4-b]pyrrolo[3,4-d]pyridin-7(3H)-yl)methyl]benzonitrile]	A (A = 80-100% INHIBITION)	C (C = <50% INHIBITION)	C (C = <50% INHIBITION)	C (C = <50% INHIBITION)	B (B = 50-79% INHIBITION)	C (C = <50% INHIBITION)
208 to 211 °C	COc1ccc(OC)c(-c2ccccc2CN2C(=O)c3cnc4[nH]ncc4c3C2=O)c1 [Example 143, 7-[(2′,5′-dimethoxybiphenyl-2-yl)methyl]pyrazolo[3,4-b]pyrrolo[3,4-d]pyridine-6,8(3H,7H)-done]	A (A = 80-100% INHIBITION)	C (C = <50% INHIBITION)	C (C = <50% INHIBITION)	C (C = <50% INHIBITION)	A (A = 80-100% INHIBITION)	C (C = <50% INHIBITION)
161 to 163 °C	CC(c1ccccc1-c1ccccc1)N1C(=O)c2cnc3[nH]ncc3c2C1=O (stereo not shown) [Example 144, 7-(1-biphenyl-2-ylethyl)pyrazolo[3,4-b]pyrrolo[3,4-d]pyridine-6,8(3H,7H)-dione]	–	–	–	–	–	–
199 to 200 °C	O=C1c2cnc3[nH]ncc3c2C(=O)N1Cc1ccccc1-c1ccc(F)cc1F [Example 145, 7-[(2′,4′-difluorobiphenyl-2-yl)methyl]pyrazolo[3,4-b]pyrrolo[3,4-d]pyridine-6,8(3H,7H)-dione]	–	–	–	–	–	–
193 to 198 °C	Cc1ccc(-c2ccccc2CN2C(=O)c3cnc4[nH]ncc4c3C2=O)cc1F [Example 146, 7-[(3′-fluoro-4′-methylbiphenyl-2-yl)methyl]pyrazolo[3,4-b]pyrrolo[3,4-d]pyridine-6,8(3H,7H)-dione]	C (C = <50% INHIBITION)	C (C = <50% INHIBITION)	C (C = <50% INHIBITION)	C (C = <50% INHIBITION)	C (C = <50% INHIBITION)	C (C = <50% INHIBITION)
99 to 100 °C	COc1cccc(-c2ccccc2CN2C(=O)c3cnc4[nH]ncc4c3C2=O)c1 [Example 147, 7-[(3′-methoxybiphenyl-2-yl)methyl]pyrazolo[3,4-b]pyrrolo[3,4-d]pyridine-6,8(3H,7H)-dione]	–	–	–	–	–	–
224 to 228 °C	O=C1c2cnc3[nH]nc(-c4ccccc4)c3c2C(=O)N1Cc1c(F)cccc1Cl [Example 169, 7-(2-chloro-6-fluorobenzyl)-1-phenylpyrazolo[3,4-b]pyrrolo[3,4-d]pyridine-6,8(3H,7H)-dione]	–	–	–	–	–	–
